Laboratory results taken from patent publication US6395745B1, “Alkaloid halide salts of swainsonine and methods of use” (priority 1997, dated 2002).

Legend:
[1] = tested on: SP1.A3a mouse mammary carcinoma cells; assay: Growth factor dependent proliferation of SP1.A3a cells in vitro (tritiated thymidine); assay type: cell-based; conditions: 0.2 μg/ml, FIG. 7
Protocol: SP1.A3a mouse mammary carcinoma cells were grown for 24 hours in culture medium containing 10% bovine serum, with and without swainsonine hydrochloride at a concentration of 0.2 μg/ml. In the following 24 hours cells were maintained in serum-free medium (SFM) with and without swainsonine hydrochloride. Cells were then grown in the absence of growth factors for 6 hours, or exposed to one of the following growth factors: TNFα (tumor necrosis factor-α), TGFβ1 (transforming growth factor-β), TGFα, platelet-derived growth factor (PDGF), epidermal growth factor (EGF). Tritiated thymidine was added for a final 18 hours, cells were harvested using a multiple-cell harvester and radioactivity was measured in a β-counter as a measure of cell proliferation.

[2] = biological target: T1, purified rat liver Golgi mannosidase II (Rattus norvegicus, UniProt P28494); assay: Inhibition of purified Golgi mannosidase II in vitro (p-nitrophenyl mannopyranoside); assay type: biochemical; conditions: pH 5.6, 60 minutes at 37° C.
T1 construct: 15 μl of purified rat liver Golgi mannosidase II; from tissue; host or cells: rat liver
T1 sequence (P28494 1-1148): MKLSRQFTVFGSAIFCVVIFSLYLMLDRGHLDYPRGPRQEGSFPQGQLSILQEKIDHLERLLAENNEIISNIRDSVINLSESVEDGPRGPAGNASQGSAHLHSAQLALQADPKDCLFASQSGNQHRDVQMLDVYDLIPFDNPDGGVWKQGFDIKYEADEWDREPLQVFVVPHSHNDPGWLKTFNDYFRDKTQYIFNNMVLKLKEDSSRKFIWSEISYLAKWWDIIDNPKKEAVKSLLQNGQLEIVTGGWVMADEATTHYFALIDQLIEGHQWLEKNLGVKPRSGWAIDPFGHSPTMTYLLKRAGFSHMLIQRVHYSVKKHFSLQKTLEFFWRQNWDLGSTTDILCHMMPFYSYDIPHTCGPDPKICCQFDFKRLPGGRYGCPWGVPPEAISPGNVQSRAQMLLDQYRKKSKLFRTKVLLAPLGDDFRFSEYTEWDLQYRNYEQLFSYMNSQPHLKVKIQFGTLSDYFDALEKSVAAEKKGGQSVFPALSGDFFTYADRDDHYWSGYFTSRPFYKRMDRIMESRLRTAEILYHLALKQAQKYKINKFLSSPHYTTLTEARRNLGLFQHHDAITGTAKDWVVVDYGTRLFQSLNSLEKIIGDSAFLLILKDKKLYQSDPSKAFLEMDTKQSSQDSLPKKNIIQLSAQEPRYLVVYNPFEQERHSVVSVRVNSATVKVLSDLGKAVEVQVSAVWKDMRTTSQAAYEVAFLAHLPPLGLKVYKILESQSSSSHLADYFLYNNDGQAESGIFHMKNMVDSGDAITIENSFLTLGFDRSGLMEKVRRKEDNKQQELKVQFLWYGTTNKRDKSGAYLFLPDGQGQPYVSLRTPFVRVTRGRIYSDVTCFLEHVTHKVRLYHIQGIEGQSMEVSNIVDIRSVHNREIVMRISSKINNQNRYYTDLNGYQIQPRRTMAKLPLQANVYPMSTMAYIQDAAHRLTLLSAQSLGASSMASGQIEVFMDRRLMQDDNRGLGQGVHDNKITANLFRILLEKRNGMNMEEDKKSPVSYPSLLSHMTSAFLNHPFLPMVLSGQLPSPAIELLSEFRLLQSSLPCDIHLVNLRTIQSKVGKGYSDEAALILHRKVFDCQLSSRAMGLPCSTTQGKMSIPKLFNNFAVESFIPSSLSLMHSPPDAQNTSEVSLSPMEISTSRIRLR
Protocol: The test compound swainsonine is prepared by 0.4 serial dilution of a 40 μM stock. Present in each determination is 10 μl diluted test compound, 25 μl of 10 mM paranitrophenyl mannopyranoside, 200 mM sodium acetate, pH 5.6 and 15 μl of purified rat liver Golgi mannosidase II. After incubating the reaction for 60 minutes at 37° C., the reaction is quenched with 50 μl of 0.5 M sodium carbonate. Absorption is read at […]. After subtracting the blank from positive controls and samples, the samples are normalized against the positive control mean using a variable slope, sigmoidal curve fit, with bottom=0, top=100. The signal is proportional to the amount of products from the uninhibited reaction.

[3] = tested on: early erythroid progenitor cells (CFU-E); assay: Murine bone marrow progenitor cell assay in methylcellulose, CFU-E; assay type: cell-based, C57BL/6 mice
Protocol: Pathogen-free C57BL/6 female mice, 8-9 weeks old, obtained from Jackson Laboratories were used. The room environment and photoperiod were controlled: 24° C.; humidity, 50±20%; 12 hr light and 12 hr dark. Mice were housed one per cage with ad libitum accesses to standard pelleted commercial laboratory diet and to sterile (autoclaved) tap water.
Swainsonine hydrochloride was manufactured by Seres Laboratories, Calif. FBS and methylcellulose (MethoCult M3330) were purchased from Stem Cell Technologies, Inc. (Vancouver. BC). Iscove's modified Dulbecco's medium was prepared using powdered media from Gibco BRL, deionized water and filter sterilization. For the handling of cells, the media was supplemented with 2% FBS and 50 μM β-mercaptoethanol (referred to as IMDM/FBS).
The healthy and GD0039 treated mice were euthanized by CO2 asphyxiation. Bone marrow (BM) cell suspensions were prepared under sterile conditions by flushing both femurs and tibiae with IMDM/FBS using a 26 gauge needle. Single cell suspensions were made up to 10.0 ml IMDM/FBS. The concentration of nucleated cells in each suspension was determined by triplicate counts on a hemocytometer. A portion of the cells was further diluted in media to the appropriate concentration before plating for the progenitor assay.
Colony-forming units (CFUs) were estimated by the methylcellulose method. One milliliter suspensions, containing 2×10^5 nucleated BM cells, in 0.1 ml of IMDM and 0.9 ml MethoCult (M3330), were plated in triplicate in 35 mm tissue culture dishes. […] The MethoCult M3330 contains 30% FBS and 10 μg/ml erythropoietin and is designed for the growth of early erythroid progenitor cells (CFU-E), which were scored after 3 days of incubation at 37° C. in a humidified atmosphere containing 5% CO2. […] Colonies containing more than 20 cells were scored using an inverted microscope with brightfield optics and 40× or 100× magnification.

Cl.O[C@H]1[C@H]2[C@H](O)CCCN2C[C@@H]1O [swainsonine hydrochloride, (−)-(1S,2S,8R,8aR)-1,2,8-trihydroxyoctahydro-indolizidine hydrochloride salt]
TGF-β1 and TNF-α dependent growth stimulation of SP1.A3a cells [1]: suppresses | IC50 [2]: 68 ± 21 nM | increase in the number of early CFU-E ([3]; 0.03 μg/ml to 10 μg/ml in vitro): ~3 fold | number of early CFU-E, counted on day 3 ([3]; added to methylcellulose in vitro): significantly increased | mean CFU-E of triplicate counts ± SD from 2 × 10^5 nucleated BM cells ([3]; mouse 1 (control), 0.3 μg/ml in vitro, in vitro control 54 ± 12): 75 ± 16 | mean CFU-E of triplicate counts ± SD from 2 × 10^5 nucleated BM cells ([3]; mouse 1 (control), 3 μg/ml in vitro, in vitro control 54 ± 12): 87 ± 16 | mean CFU-E of triplicate counts ± SD from 2 × 10^5 nucleated BM cells ([3]; mouse 2 (GD0039 treated in vivo, 20 μg/day for four days), 0.3 μg/ml in vitro): 97 ± 4 | mean CFU-E of triplicate counts ± SD from 2 × 10^5 nucleated BM cells ([3]; mouse 2 (GD0039 treated in vivo, 20 μg/day for four days), 3 μg/ml in vitro): 127 ± 18 | mean CFU-E of triplicate counts ± SD from 2 × 10^5 nucleated BM cells ([3]; mouse 2 (GD0039 treated in vivo, 20 μg/day for four days), no treatment in vitro): 22 ± 5
